Laboratory results as given in US20260053794A1, “SOMATOSTATIN RECEPTOR 2 AGONISTS AND USES THEREOF” (Exelixis, Inc., priority 2022, published 2026).

Target: T1, Somatostatin Receptor 2 (SSTR2) (Homo sapiens, UniProt P30874)
T1 construct: expressed in transfected cells
Assay: Biochemical Assay for Activation of Somatostatin Receptor 2 (SSTR2), Cisbio HTRF cAMP assay
Format: cell-based
Details: average pEC50; HTRF cAMP assay in stably-transfected cell line expressing SSTR2; cells incubated with compounds for 1-2h
Description: Biochemical Assay for Activation of Somatostatin Receptor 2 (SSTR2)
Agonistic activation of SSTRs leads to an […] production of intracellular cAMP levels. Cisbio's homogeneous time-resolved fluorescence (HTRF) cAMP assay was used to measure cAMP concentration in an high-throughput format. Increase in intracellular cAMP concentrations was measuring using a stably-transfected cell line expressing SSTR2. Test compounds were dissolved in DMSO. Cells were incubated with compounds for 1-2h, and subsequently competitive binding of cAMP produced due to the activation of SSTR2 by the test compounds was measured using the Cisbio cAMP Gs dynamic assay system (Perkin Elmer, Bedford, MA).
The average pEC50 was determined for the test compounds.

T1 sequence (P30874 whole entry, species assumed): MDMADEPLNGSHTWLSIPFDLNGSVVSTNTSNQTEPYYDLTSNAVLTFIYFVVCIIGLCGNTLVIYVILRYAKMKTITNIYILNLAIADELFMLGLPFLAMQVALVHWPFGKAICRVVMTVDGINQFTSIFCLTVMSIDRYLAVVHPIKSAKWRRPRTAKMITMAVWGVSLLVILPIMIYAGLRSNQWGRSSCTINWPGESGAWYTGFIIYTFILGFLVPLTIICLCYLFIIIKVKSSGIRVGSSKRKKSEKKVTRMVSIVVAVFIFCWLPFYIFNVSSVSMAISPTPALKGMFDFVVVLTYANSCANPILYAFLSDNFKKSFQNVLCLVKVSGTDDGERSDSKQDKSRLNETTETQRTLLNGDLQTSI

| EC50 [nM] | Compound |
| --- | --- |
| 0.316 | COc1c(C#N)cccc1-c1ccc2ncc(-c3cc(F)cc(F)c3)c(N3CCC(N)CC3)c2c1 [Compound 154] |
| 1 | Cc1cc(F)cc(-c2cnc3ccc(-c4cc(F)cc(C(N)=O)c4)cc3c2O[C@H]2C[C@H](N)C2)c1 [Compound 19] |
| 158 | Cc1cc(F)cc(-c2cnc3ccc4cc3c2N2CCC(CC2)NCC(N=[N+]=[N-])CCOc2c(C#N)cccc2-4)c1 (centres unmarked) [Compound 94, 7-azido-23-(3-fluoro-5-methylphenyl)-4-oxa-9-aza-2(4.6)-quinolina-1(1.4)-piperidina-3(1,2)-benzenacyclononaphane-33-carbonitrile] |
| 0.794 | NC(=O)c1cccc2c1OCCCNC1CCN(CC1)c1c(-c3cc(F)cc(F)c3)cnc3ccc-2cc13 [Compound 67] |
| 25.1 | Cc1cc(C)cc(-c2cnc3c(c2N2CCC(N)CC2)C(=O)N(c2ccc(F)c(F)c2)CC3)c1 [Compound 112] |
| 0.0316 | NC1CCN(c2c(-c3cc(F)cc(F)c3)cnc3ccc(-c4cc(F)cc(F)c4)cc23)CC1 [Compound 145] |
| 3980 | Cc1cc(F)cc(-c2cnc3ccc4cc3c2N2CCC(CC2)NCC[C@H](O)COc2c(C#N)cccc2-4)c1 (single isomer, unassigned) [Compound 103] |
| 10 | COc1cc(F)cc(-c2cnc3[nH]c(-c4cccc(Br)c4O)nc3c2N2CCC(N)CC2)c1 [Compound 57] |
| 0.0251 | Cc1cc(F)cc(-c2cnc3ccc4cc3c2N2CCC(CC2)NCCCCOc2c(C#N)cccc2-4)c1 [Compound 73] |
| 12.6 | N[C@@H]1CC[C@@H](Oc2c(-c3cc(F)cc(F)c3)cnc3ccc(-c4cc(F)cc(F)c4)cc23)C1 [Compound 14] |
| 2000 | CNCCCn1c(=O)n2c3cc(F)c(F)cc3nc2c2cncc(-c3cc(F)cc(F)c3)c21 [Compound 106, 4-(3,5-difluorophenyl)-9,10-difluoro-5-(3-(methylamino)propyl) benzo[4,5]imidazo[1,2-c]pyrido[3,4-e]pyrimidin-6(5H)-one] |
| > 10000 | N[C@H]1CCN(c2c(-c3cc(F)cc(F)c3)cnc3c2C(=O)N(c2ccc(F)c(F)c2)CC3)C1 [Compound 114] |
| 200 | N#Cc1cccc(-c2ccc3ncc(-c4cc(F)cc(F)c4)c(O[C@H]4CC[C@@H](N)C4)c3c2)c1O [Compound 16] |
| 10 | Cc1cc(F)cc(-c2c[n+]3c4ccc(cc4c2N2CCC(N)CC2)-c2ccccc2OCCCC3)c1 [Compound 161] |
| 501 | CO[C@@H]1CN(c2c(-c3cc(F)cc(F)c3)cnc3[nH]c(-c4cccc(C#N)c4O)nc23)CC[C@H]1N [Compound 48] |
| 7.94 | Cc1cc(F)cc(-c2cnc3ccc(-c4cc(F)cc(C(N)=O)c4)cc3c2O[C@H]2CC[C@@H](N)C2)c1 [Compound 3] |
| > 10000 | COc1cc(F)cc(-c2cnc3[nH]c(-c4cc(F)cc(C(=O)O)c4)nc3c2N2CC[C@@H](N)[C@H](OC)C2)c1 [Compound 52] |
| 0.398 | NC1CCN(c2c(-c3cc(F)cc(F)c3)cnc3c(C(=O)O)cc(-c4cc(F)cc(F)c4)cc23)CC1 [Compound 149] |
| 501 | COc1cc(F)cc(-c2cnc3c(nc(-c4cccc(C#N)c4O)n3C)c2N2CCC(N)CC2)c1 [Compound 34] |

| EC50 [nM] | Compound |
| --- | --- |
| 251 | N#Cc1cccc(-c2cc3ncc(-c4cc(F)cc(F)c4)c(N4CCC(N)CC4)c3o2)c1O [Compound 127, 3-(7-(4-aminopiperidin-1-yl)-6-(3,5-difluorophenyl)furo[3,2-b]pyridine-2-yl)-2-hydroxybenzonitrile] |
| 6.31 | O=C1NCCCNC2CCN(CC2)c2c(-c3cc(F)cc(F)c3)cnc3ccc(cc23)-c2cccc1n2 [Compound 80] |
| 1.58 | NC1CCN(c2c(-c3cc(F)cc(F)c3)cnc3ccc(C4=CC=CC5(O)C(=O)NCCN45)cc23)CC1 (centres unmarked) [Compound 151] |
| 1260 | N#Cc1cccc(-c2ccc3ncc(-c4cc(F)cc(F)c4)c(-n4ccc(CN)c4)c3c2)c1O [Compound 144] |
| 0.0501 | Cc1cc(F)cc(-c2cncc(N3Cc4ccccc4C3)c2N2CCC(N)CC2)c1 [Compound 119] |
| 1.26 | Fc1cc(F)cc(-c2cnc3ccc4cc3c2N2CCC(CC2)NCCCCCOc2cccc-4c2)c1 [Compound 69] |
| 200 | CC(N)CCN1Cc2ccc(F)cc2-c2cncc(C(=O)Nc3ccc(F)c(F)c3)c21 (centres unmarked) [Compound 109, 5-(3-aminobutyl)-N-(3,4-difluorophenyl)-9-fluoro-6H-benzo [c][1,6]naphthyridine-4-carboxamide] |
| 1000 | Cc1cc(F)cc(-c2cnc3ccc(-c4ccccc4C4NCCCN4)cc3c2N2CCC(=O)CC2)c1 [Compound 162] |
| 0.251 | Cc1cc(F)cc(-c2cnc3ccc4cc3c2N2CCC(CC2)NCCNC(=O)Oc2ccccc2-4)c1 [Compound 87, 23-(3-fluoro-5-methylphenyl)-4-oxa-6,9-diaza-2(4,6)-quinolina-1(1,4)-piperidina-3(1,2)-benzenacyclononaphan-5-one] |
| 7.94 | Cc1cc(F)cc(-c2cnc3ccc4cc3c2N2CCC(CC2)NCC[C@H](N)COc2c(C#N)cccc2-4)c1 (single isomer, unassigned) [Compound 99] |
| 3.16 | Cc1cc(F)cc(-c2cnc3ccc(-c4cccc(C#N)c4O)cc3c2O[C@@H]2CC[C@H](N)C2)c1 [Compound 9] |
| 1000 | CO[C@@H]1CN(c2c(-c3cc(C)cc(F)c3)cnc3[nH]c(-c4cc(F)cc(C(N)=O)c4)nc23)CC[C@H]1N [Compound 53] |
| 0.398 | NCc1cc(-c2cc(F)cc(F)c2)cc2c(N3CCC(N)CC3)c(-c3cc(F)cc(F)c3)cnc12 [Compound 159] |
| 6.31 | Cc1cc(F)cc(-c2cnc3ccc4cc3c2N2CCC(CC2)NC[C@H](CO)CCOc2c(C#N)cccc2-4)c1 (single isomer, unassigned) [Compound 91] |
| > 10000 | COc1cc(F)cc(-c2cnc3c(nc(-c4ccc5[nH]c(=O)[nH]c5c4)n3C)c2N2CCC(N)CC2)c1 [Compound 32] |
| > 10000 | COCOc1c(C#N)cccc1-c1ccc2ncc(-c3cc(F)cc(F)c3)c(-n3ccc([N+](=O)[O-])c3)c2c1 [Compound 143] |
| 501 | COc1cc(F)cc(-c2cnc3[nH]c(-c4cc(F)cc(C(N)=O)c4)nc3c2N2CCC(N)CC2)c1 [Compound 58] |
| > 10000 | N#Cc1cccc(-c2ccc3ncc(-c4cc(F)cc(F)c4)c(-c4ccc(N)cn4)c3c2)c1O [Compound 123] |
| 158 | N#Cc1cccc2c1NCCCNC1CCN(CC1)c1c(-c3cc(F)cc(F)c3)cnc3ccc-2cc13 [Compound 93] |

| EC50 [nM] | Compound |
| --- | --- |
| > 5010 | CO[C@@H]1CN(c2c(-c3cc(F)cc(F)c3)cnc3c2nc(-c2cc(F)cc(C(N)=O)c2)n3C)CC[C@H]1N [Compound 24] |
| > 10000 | COc1cc(F)cc(-c2cnc3c(nc(-c4cccc(C#N)c4O)n3C)c2N2CC[C@@H](N)[C@H](OC)C2)c1 [Compound 29] |
| 158 | Cc1cc(F)cc(-c2cnc3c(nc(-c4cc(F)cc(C(N)=O)c4)n3C)c2N2CCC(N)CC2)c1 [Compound 35, 3-(7-(4-aminopiperidin-1-yl)-6-(3-fluoro-5-methylphenyl)-3-methyl-3H-imidazo[4,5-b]pyridin-2-yl)-5-fluorobenzamide] |
| 2000 | CNCCCNc1c(C(=O)Nc2ccc(F)c(F)c2)cncc1-c1cc(F)cc(F)c1 [Compound 117] |
| 15.8 | Cc1cc(F)cc(-c2cnc3ccc4cc3c2N2CCC(CC2)NCC(CO)CCOc2c(C#N)cccc2-4)c1 (single isomer, unassigned) [Compound 90] |
| > 794 | CC(C)(C)OC(=O)NC1CCN(c2c(-c3cc(F)cc(F)c3)cnc3c(C(=O)O)cc(-c4cc(F)cc(F)c4)cc23)CC1 [Compound 148] |
| 1000 | Cc1cc(C)cc(-c2cnc3c(c2N2CC[C@@H](N)C2)C(=O)N(c2cc(C)cc(C)c2)CC3)c1 [Compound 115] |
| > 10000 | COc1cc(F)cc(-c2cnc3[nH]c(-c4cccc(C#N)c4O)nc3c2N2CC[C@@H](N)[C@H](OC)C2)c1 [Compound 51] |
| > 10000 | COc1cc(F)cc(-c2cnc3c(nc(-c4ccc5[nH]c(=O)[nH]c5c4)n3C)c2N2CC[C@@H](N)[C@H](OC)C2)c1 [Compound 31] |
| > 10000 | CO[C@@H]1CN(c2c(-c3cc(F)cc(F)c3)cnc3c2nc(-c2cccc(C#N)c2O)n3C)CC[C@H]1N [Compound 23, 3-(7-((3R,4R)-4-amino-3-methoxypiperidin-1-yl)-6-(3,5-difluorophenyl)-3-methyl-3H-imidazo[4,5-b]pyridin-2-yl)-2-hydroxybenzonitrile] |
| 100 | N[C@H]1CC[C@@H](Oc2c(-c3cc(F)cc(F)c3)cnc3ccc(-c4cc(F)cc(F)c4)cc23)C1 [Compound 13] |
| > 10000 | Cn1c(-c2cccc(Br)c2O)nc2ncc(-c3cc(F)cc(F)c3)c(N3CCC(NC(=O)OC(C)(C)C)CC3)c21 [Compound 44] |
| 100 | NC(=O)c1cc(F)cc(-c2cc3ncc(-c4cc(F)cc(F)c4)c(N4CCC(N)CC4)c3o2)c1 [Compound 128] |
| 398 | N#Cc1cccc(-c2ccc3ncc(-c4cc(F)cc(F)c4)c(N4CCC(O)CC4)c3c2)c1NCCCN [Compound 146] |
| 398 | Cc1cc(F)cc(-c2cnc3ccc4cc3c2N2CCC(CC2)NCC[C@@H](O)COc2c(C#N)cccc2-4)c1 (single isomer, unassigned) [Compound 102] |
| 20 | COc1cc(F)cc(-c2cnc3ccc(-c4cccc(C#N)c4O)cc3c2O[C@@H]2CC[C@H](N)C2)c1 [Compound 7] |
| 2510 | Cc1cc(F)cc(-c2cnc3ccc4cc3c2N2CCC(CC2)NC[C@@H](O)CCOc2c(C#N)cccc2-4)c1 (single isomer, unassigned) [Compound 100] |
| > 10000 | CO[C@@H]1CN(c2c(-c3cc(C)cc(F)c3)cnc3[nH]c(-c4ccc5[nH]c(=O)[nH]c5c4)nc23)CC[C@H]1N [Compound 55] |
